Source: patent US11001578B2, “N-((HET)arylmethyl)-heteroaryl-carboxamides compounds as plasma kallikrein inhibitors” (KALVISTA PHARMACEUTICALS LIMITED, priority 2014, dated 2021)

Experiments:
Human KLK1 = Human KLK1 (Homo sapiens (Human), UniProt P06870); experiment: Determination of the IC50 for KLK1 (fluorogenic substrate H-DVal-Leu-Arg-AFC); type: biochemical; conditions: 25° C.
Procedure: Determination of the IC50 for KLK1
Human KLK1 (Callbiochem) was incubated at 25° C. with the fluorogenic substrate H-DVal-Leu-Arg-AFC and various concentrations of the test compound. Residual enzyme activity (initial rate of reaction) was determined by measuring the change in […] at 410 nm and the IC50 value for the test compound was determined.

Human FXIa = Human FXIa (Homo sapiens (Human), UniProt P03951); experiment: Determination of the % inhibition for FXIa (fluorogenic substrate Z-Gly-Pro-Arg-AFC); type: biochemical; conditions: 40 μM of the test compound, 25° C.
Sequence of Human FXIa (P03951 388-625 limits assumed): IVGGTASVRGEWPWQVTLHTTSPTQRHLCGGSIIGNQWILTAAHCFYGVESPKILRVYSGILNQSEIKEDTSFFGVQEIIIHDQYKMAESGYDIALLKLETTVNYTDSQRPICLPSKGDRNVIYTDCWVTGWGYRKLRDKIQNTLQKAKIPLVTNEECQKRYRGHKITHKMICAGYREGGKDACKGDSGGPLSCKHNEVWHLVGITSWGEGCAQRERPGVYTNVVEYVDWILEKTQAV
Sequence of Human FXIa (P03951 19-387 partner limits assumed): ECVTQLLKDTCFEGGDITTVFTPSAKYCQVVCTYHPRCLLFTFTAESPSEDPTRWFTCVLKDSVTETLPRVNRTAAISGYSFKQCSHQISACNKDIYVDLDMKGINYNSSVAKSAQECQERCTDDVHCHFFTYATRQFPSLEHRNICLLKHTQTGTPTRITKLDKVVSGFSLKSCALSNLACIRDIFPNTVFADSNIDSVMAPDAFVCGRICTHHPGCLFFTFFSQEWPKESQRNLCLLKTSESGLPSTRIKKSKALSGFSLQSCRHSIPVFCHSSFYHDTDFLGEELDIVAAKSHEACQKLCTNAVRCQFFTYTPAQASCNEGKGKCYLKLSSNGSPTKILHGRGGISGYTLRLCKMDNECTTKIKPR
Procedure: Determination of the % Inhibition for FXIa
Human FXIa (Enzyme Research Laboratories) was incubated at 25° C. with the fluorogenic substrate Z-Gly-Pro-Arg-AFC and 40 μM of the test compound. Residual enzyme activity (initial rate of reaction) was determined by measuring the change in […].

Sequence of Human KLK1 (P06870 25-262): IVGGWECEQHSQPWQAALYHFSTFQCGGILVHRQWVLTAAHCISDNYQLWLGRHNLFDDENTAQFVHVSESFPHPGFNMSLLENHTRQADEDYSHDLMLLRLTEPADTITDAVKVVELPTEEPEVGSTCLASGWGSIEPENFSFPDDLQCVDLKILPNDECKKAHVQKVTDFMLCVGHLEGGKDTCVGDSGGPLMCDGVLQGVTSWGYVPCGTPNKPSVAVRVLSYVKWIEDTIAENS

COc1cc(F)c(CNC(=O)c2cn(Cc3ccc(Cn4cc(C)cn4)cc3)nc2C(F)(F)F)c(F)c1 [Example 11, N-[(2,6-difluoro-4-methoxyphenyl)methyl]-1-({4-[(4-methylpyrazol-1-yl)methyl]phenyl}methyl)-3-(trifluoromethyl)pyrazole-4-carboxamide]
IC50 (Human KLK1): > 10 µM

NC(=O)c1cccc(CNC(=O)c2cn(Cc3ccc(Cn4ccccc4=O)cc3)nc2C2CC2)c1 [Example 49, N-[(3-carbamoylphenyl)methyl]-3-cyclopropyl-1-({4-[(2-oxopyridin-1-yl)methyl]phenyl}methyl)pyrazole-4-carboxamide]
% Inhibition @ 40 μM (human FXIa) (Human FXIa): 0%

COc1cccc(CNC(=O)c2cn(Cc3ccc(Cn4ccccc4=O)cc3)nc2C2CC2)c1F [Example 52, 3-cyclopropyl-N-[(2-fluoro-3-methoxyphenyl)methyl]-1-({4-[(2-oxopyridin-1-yl)methyl]phenyl}methyl)pyrazole-4-carboxamide]
% Inhibition @ 40 μM (human FXIa) (Human FXIa): 1%

Nc1nn(Cc2ccc(Cn3ccccc3=O)cc2)cc1C(=O)NCc1ccc(OC(F)(F)F)cc1 [Example 58, 3-amino-1-({4-[(2-oxopyridin-1-yl)methyl]phenyl}methyl)-N-{[4-(trifluoromethoxy)phenyl]methyl}pyrazole-4-carboxamide]
% Inhibition @ 40 μM (human FXIa) (Human FXIa): 0%
